We go through eight compounds from patent US20250345329A1, “HETEROARYL DERIVATIVE COMPOUND AND USES THEREOF” (VORONOI, INC., priority 2022, published 2025).

The term IC50 denotes the midpoint of a concentration-inhibition curve.

Test [1] deals with T1, human EGFR (d746-750/T790M/C797S) (Homo sapiens, UniProt P00533, C797S/DEL746-750/T790M).
T1 construct: human EGFR (d746-750/T790M/C797S) (668-end, SignalChem); purchased SignalChem
Nature of the test: EGFR C797S enzyme inhibition activity (ADP-Glo kinase assay). The test is classed as biochemical. To be noted: purified enzyme 3 ng, ATP 5 μM, 25° C., 1 hour, luminescence; read-out: EGFR DTC Enzyme IC50. The procedure, abridged:
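Kinase construct 668-end (3 ng) was incubated with 5 μM ATP and 0.2 μg substrate in Tris pH 7.4 buffer for 1 h at 25° C. ADP-Glo luminescence was read over 12 final compound concentrations from 10 μM down to 0. IC50 was taken as 50% inhibition relative to the solvent control.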
In general terms: ADP-Glo turns the ADP formed in a reaction into a luminescent signal.

The subject of test [2] is Ba/F3 expressing EGFR Del19/T790M/C797S mutations. The test can be described thus: Inhibitory activity on proliferation of Ba/F3 cell overexpressing EGFR C797S (Cell Titer-Glo). Particulars: Mus musculus, BaF3; 72 hours treatment, cell growth rate vs control; read-out: Ba/F3 (EGFR DTC) GI50. Format: cell-based. The method, boiled down:
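Ba/F3 cells with EGFR Del19/T790M/C797S in RPMI-1640 + 10% FBS were seeded (3000/well) 24 h before 72 h compound exposure at 37 °C. Compounds were tested in a 12-point 3-fold series, final […]–5 μM. CellTiter-Glo luminescence gave growth % versus control, from which GI50 was derived.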
A general note: In ATP-based viability assays light output follows the ATP content of the culture.

T1 sequence (P00533 with tags, fused parts or gaps DEL746-750/T790M/C797S): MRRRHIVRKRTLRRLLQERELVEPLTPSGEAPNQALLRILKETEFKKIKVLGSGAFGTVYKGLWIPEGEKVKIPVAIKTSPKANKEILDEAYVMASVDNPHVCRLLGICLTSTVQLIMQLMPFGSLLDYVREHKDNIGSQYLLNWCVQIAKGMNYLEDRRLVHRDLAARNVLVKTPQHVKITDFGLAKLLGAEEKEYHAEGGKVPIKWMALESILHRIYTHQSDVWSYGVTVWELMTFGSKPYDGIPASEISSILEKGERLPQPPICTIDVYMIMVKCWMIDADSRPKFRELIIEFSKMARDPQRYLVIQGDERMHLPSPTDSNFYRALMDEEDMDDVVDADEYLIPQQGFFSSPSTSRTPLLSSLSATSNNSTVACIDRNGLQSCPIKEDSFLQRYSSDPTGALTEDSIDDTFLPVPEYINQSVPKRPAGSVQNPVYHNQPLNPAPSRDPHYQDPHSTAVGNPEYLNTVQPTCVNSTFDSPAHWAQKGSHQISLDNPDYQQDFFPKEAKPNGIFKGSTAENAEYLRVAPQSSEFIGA

For the compound `C[C@H]1CCOc2c(cnn2C)-c2nccc(n2)Nc2cc(c(C(=O)Nc3cccc(N4CCN(C)CC4)c3)cn2)N1` [Example 100, (S)-1^1,6-dimethyl-N-(3-(4-methylpiperazin-1-yl)phenyl)-1^1H-9-oxa-3,5-diaza-2(2,4)-pyrimidina-4(2,4)-pyridina-1(4.5)-pyrazolacyclo-nonaphane-4^5-carboxamide], the IC50 in test [1] is less than 50 nM. In addition, the GI50 in test [2] was less than 500 nM.

`COC(=O)c1cnc2cc1N[C@@H](C)CCOc1c(cnn1C)-c1nccc(n1)N2` [Example 102, methyl(S)-1^1,6-dimethyl-1^1H-9-oxa-3,5-diaza-2(2,4)-pyrimidina-4(2,4)-pyridina-1(4,5)-pyrazolacyclo-nonaphane-4^5-carboxylate]: the IC50 in test [1] was less than 50 nM. Also, the GI50 in test [2] was less than 500 nM.

For the compound `C[C@H]1CCOc2c(cnn2C)-c2nccc(n2)Nc2cc(c(C(=O)N3CC(CS(C)(=O)=O)C3)cn2)N1` [Example 105, (S)-(1^1,6-dimethyl-1^1H-9-oxa-3,5-diaza-2(2,4)-pyrimidina-4(2,4)-pyridina-1(4,5)-pyrazolacyclo-nonaphane-4^5-yl)(3-((methylsulfonyl)meth-yl)azetidin-1-yl)methanone], the IC50 in test [1] was less than 50 nM. The GI50 in test [2] lay in the range of 500 to 5000 nM.

With `C[C@H]1CCOc2c(cnn2C)-c2nccc(n2)Nc2cc(c(C(=O)NCCS(C)(=O)=O)cn2)N1` [Example 110, (S)-1^1,6-dimethyl-N-(2-(methylsulfonyl)ethyl)-1^1H-9-oxa-3,5-diaza-2(2,4)-pyrimidina-4(2,4)-pyridina-1(4,5)-pyrazolacyclo-nonaphane-4^5-carboxamide], in test [1], the IC50 was less than 50 nM. In addition, the GI50 in test [2] was 500 to 5000 nM.

In the case of `C[C@H]1CCOc2c(cnn2C)-c2cc(ccn2)Nc2ncc(C(=O)NCCC(F)(F)F)c(n2)N1` [Example 115, (S)-1^1,6-dimethyl-N-(3,3,3-trifluoropropyl)-1^1H-9-oxa-3,5-diaza-4(2,4)-pyrimidina-2(2,4)-pyridina-1(4,5)-pyrazolacyclo-nonaphane-4^5-carboxamide], in test [1], the IC50 was less than 50 nM. Moreover, the GI50 in test [2] is less than 500 nM.

Turning to `CC1CCCOc2c(cnn2C)-c2nccc(n2)Nc2cc(c(C(=O)NCCCC(F)(F)F)cn2)N1` (stereo not shown) [Example 116, 1^1,6-dimethyl-N-(4,4,4-trifluorobutyl)-1^1H-10-oxa-3,5-diaza-2(2,4)-pyrimidina-4(2,4)-pyridina-1(4,5)-pyrazolacyclo-decaphane-4^5-carboxamide], the IC50 in test [1] is less than 50 nM. Moreover, the GI50 in test [2] is less than 500 nM.

Take `C[C@H]1CCOc2c(cnn2C)-c2nccc(n2)Nc2cc(c(C(=O)NC3CCCC(C(F)(F)F)C3)cn2)N1` (stereo partly drawn) [Example 119, (6S)-1^1,6-dimethyl-N-(3-(trifluoroemthyl)cy-clohexyl)-1^1H-9-oxa-3,5-diaza-2(2,4)-pyrimidina-4(2,4)-pyridina-1(4,5)-pyrazolacyclo-nonaphane-4^5-carboxamide]: the IC50 in test [1] is less than 50 nM. The GI50 in test [2] is less than 500 nM.

As for `C[C@H]1CCOc2c(cnn2C)-c2nccc(n2)Nc2cc(c(C(=O)NC(CCN(C)C)c3ccccc3)cn2)N1` (stereo partly drawn) [Example 120, (6S)-N-(3-(dimethylamino)-1-phenylpropyl)-1^1,6-dimethyl-1^1H-9-oxa-3,5-diaza-2(2,4)-pyrimidina-4(2,4)-pyridina-1(4,5)-pyrazolacyclo-nonaphane-4^5-carboxamide], in test [1], the IC50 is less than 50 nM. The GI50 in test [2] is 500 to 5000 nM.
